Here are results for 17 compounds from patent US20260234157A1, “COMPOUND AND METHOD FOR TARGETED DEGRADATION OF ANDROGEN RECEPTOR” (Gan & Lee Pharmaceuticals Co., Ltd., priority 2023, published 2026).

Substitutions are numbered along the chain they refer to. Like-named read-outs stand apart in the source and are kept apart here.

What all share (type): cell-based
Assay [1] relates to LNCaP FGC cells. In words: Inhibition of proliferation of LNCaP cells (WST-8). The protocol:
The cells were cultured in a cell culture incubator with 5% CO2 at 37° C. overnight. […] On the sixth day, 96 well plates were taken out, and 20 μL of WST-8 (Beytime, C0040) reagent was added to each well.
(In general: Tetrazolium assays rely on reduction of a dye to a coloured formazan, in cell work by metabolically active cells.)

For assay [2], the target named is T1, AR protein (Homo sapiens, UniProt P10275, T878A).
T1 construct: degradation activity of the compounds disclosed in the present disclosure on AR protein in LNCaP cells; host or cells: LNCaP FGC
T1 sequence (P10275 1-920 T878A): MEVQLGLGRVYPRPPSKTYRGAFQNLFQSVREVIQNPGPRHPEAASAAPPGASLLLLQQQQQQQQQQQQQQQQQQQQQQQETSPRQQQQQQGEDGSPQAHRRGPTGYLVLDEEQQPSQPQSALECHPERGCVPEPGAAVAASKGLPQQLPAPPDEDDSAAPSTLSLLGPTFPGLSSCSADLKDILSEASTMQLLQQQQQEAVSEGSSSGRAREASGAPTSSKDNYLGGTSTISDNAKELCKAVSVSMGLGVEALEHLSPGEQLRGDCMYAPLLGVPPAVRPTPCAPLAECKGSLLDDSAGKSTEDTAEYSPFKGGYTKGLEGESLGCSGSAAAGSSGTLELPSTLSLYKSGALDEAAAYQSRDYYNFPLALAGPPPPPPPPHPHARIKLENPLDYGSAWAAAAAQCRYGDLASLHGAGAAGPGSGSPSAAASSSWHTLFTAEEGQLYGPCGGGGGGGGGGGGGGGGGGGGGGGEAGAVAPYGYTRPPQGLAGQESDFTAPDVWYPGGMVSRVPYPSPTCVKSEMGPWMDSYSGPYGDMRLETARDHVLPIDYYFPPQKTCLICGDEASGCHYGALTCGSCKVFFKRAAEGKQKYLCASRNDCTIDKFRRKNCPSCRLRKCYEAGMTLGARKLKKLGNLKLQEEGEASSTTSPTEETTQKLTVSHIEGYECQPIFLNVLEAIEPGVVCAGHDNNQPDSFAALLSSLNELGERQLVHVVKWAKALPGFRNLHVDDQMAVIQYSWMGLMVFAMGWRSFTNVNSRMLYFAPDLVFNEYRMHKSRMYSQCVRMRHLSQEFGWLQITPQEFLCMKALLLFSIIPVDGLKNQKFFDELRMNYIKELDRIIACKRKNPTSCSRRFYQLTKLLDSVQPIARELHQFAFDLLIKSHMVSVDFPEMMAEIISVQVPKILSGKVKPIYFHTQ
In words: Degradation of AR protein in LNCaP cells (Western blot). The note with it: for inhibition at 0.01 µM: read-out: Degradation rates of the AR protein in LNCaP cells, 10 nM (%); for inhibition at 0.1 µM: read-out: Degradation rates of the AR protein in LNCaP cells, 100 nM (%). As for the experimental part:
The degradation activity of the compounds disclosed in the present disclosure on AR protein in LNCaP cells (cell source: ATCC)
(§1) Corresponding solvent controls were also set and cultured for 8 hours. After 8 hours of cultivation, the culture medium was removed and the cells were washed with PBS. RIPA lysis buffer containing 1% Protease Inhibitor Cocktail was added, and the total protein extract was obtained by lysis and centrifugation. The protein concentration in the extract was detected by BCA method. Protein electrophoresis was performed using SDS-PAGE, followed by transfer of the protein onto a PVDF (Millipore Sigma catalog No. PSRP010R5) membrane at 100V constant voltage for 60 minutes. The PVDF membrane was then placed in a 1×TBST solution with 5% milk and blocked at room temperature for 1 hour. […] The primary antibody solution was discarded and the PVDF membrane was washed three times with 1×TBST for 5 minutes/time. […] The secondary antibody solution was discarded and the PVDF membrane was washed three times with 1×TBST for 5 minutes/time. Western blot imaging was performed by using a dual color infrared laser imaging system (Licor catalog No. Odyssey CLX). Bands were analyzed in grayscale using Image Studio software. For each sample, GAPDH protein bands were detected as internal reference. The degradation rates of the AR protein for the compounds and the positive control sample were calculated based on grayscale of the protein bands.
(In general: A western blot detects proteins with antibodies after separation by electrophoresis.)

Assay [3] deals with T2, AR protein (Homo sapiens, UniProt P10275).
T2 construct: degradation activity of the compounds disclosed in the present disclosure on AR protein in VCaP cells; host or cells: VCaP
T2 sequence (P10275 1-920): T1 sequence (P10275 1-920 T878A) with A878T
The assay can be described thus: Degradation of AR protein in VCaP cells (Western blot). The note with it: 8 hours; for inhibition at 0.01 µM: compound at 10 nM, read-out: Degradation rate of the AR protein in VCaP cells, 10 nM (%); for inhibition at 0.1 µM: compound at 100 nM, read-out: Degradation rate of the AR protein in VCaP cells, 100 nM (%). As for the experimental part: The degradation activity of the compounds disclosed in the present disclosure on AR protein in VCaP cells (cell source: ATCC)
as §1

[4] abbreviates: Homo sapiens, LNCaP, 96 h, LNCaP FGC cells, 96 hours, WST-8 absorbance at 450 nm, read-out: IC50 for inhibiting the proliferation of LNCaP cells.
[5] abbreviates: Homo sapiens, LNCaP, 96 h, read-out: IC50 for inhibiting the proliferation of LNCaP cells, LNCaP FGC cells, 96 hours, WST-8 absorbance at 450 nm.
The mark [6] stands for this setting: LNCaP FGC cells, 96 hours, WST-8 absorbance at 450 nm, read-out: IC50 for inhibiting the proliferation of LNCaP cells.
[7] abbreviates: LNCaP cells, compound 10 nM, 8 hours, Western blot grayscale, GAPDH internal reference.
Setting [8] is: LNCaP cells, compound 100 nM, 8 hours, Western blot grayscale, GAPDH internal reference.

Regarding `CC1(CN2CCC3(CCc4ccc5c(c4O3)CN(C3CCC(=O)NC3=O)C5=O)CC2)CCN(c2ccc(C(=O)N[C@H]3CC[C@H](Oc4ccc(C#N)c(Cl)c4)CC3)nn2)CC1` (some centres unmarked) [Compound 151], in assay [1] (setting [4]), the IC50 came out at 72.7 µM.
Turning to `CC1(C)C(=O)N(c2ccc(C#N)c(C(F)(F)F)c2)C(=S)N1c1ccc(C(=O)N2CC[C@@H](CN3CCC4(CCc5cc6c(cc5O4)C(=O)N(C4CCC(=O)NC4=O)C6=O)CC3)C2)c(F)c1` (some centres unmarked) [Compound 127], the IC50 in assay [1] (setting [4]) came out at 6.28 µM.
`CC1(C)C(=O)N(c2ccc(C#N)c(C(F)(F)F)c2)C(=S)N1c1ccc(C(=O)N2CCC3(CC2)CC(N2CCC4(CC2)COc2cc5c(cc24)C(=O)N(C2CCC(=O)NC2=O)C5=O)C3)c(F)c1` (centres unmarked) [Compound 122]: in assay [1] (setting [5]), the IC50 came out at 13.7 µM.
As for `CC1(C)C(=O)N(c2ccc(C#N)c(C(F)(F)F)c2)C(=S)N1c1ccc(C(=O)N2CC(CN3CCC4(CC3)COc3cc5c(cc3C4)C(=O)N(C3CCC(=O)NC3=O)C5=O)C2)c(F)c1` (centres unmarked) [Compound 128], in assay [1] (setting [4]), the IC50 came out at 4.16 µM.
`N#Cc1ccc(O[C@H]2CC[C@H](NC(=O)c3ccc(N4CCC(F)(CN5CCC6(CCc7ccc8c(c7O6)CN(C6CCC(=O)NC6=O)C8=O)CC5)CC4)nn3)CC2)cc1Cl` (some centres unmarked) [Compound 132]: in assay [1] (setting [6]), the IC50 was determined as 4.35 µM.
As for `CC1(C)C(=O)N(c2ccc(C#N)c(C(F)(F)F)c2)C(=S)N1c1ccc(C(=O)N2CC3(CCC(N4CCC5(CCc6cc7c(cc6O5)C(=O)N(C5CCC(=O)NC5=O)C7=O)CC4)CC3)C2)c(F)c1` (centres unmarked) [Compound 117], the IC50 in assay [1] (setting [5]) was found to be 2.57 µM.
As for `CC1(C)C(=O)N(c2ccc(C#N)c(C(F)(F)F)c2)C(=S)N1c1ccc(C(=O)N2CC[C@@H](CN3CCC4(CC3)COc3cc5c(cc3C4)C(=O)N(C3CCC(=O)NC3=O)C5=O)C2)c(F)c1` (some centres unmarked) [Compound 126], the IC50 in assay [1] (read-out: IC50 for inhibiting the proliferation of LNCaP cells, LNCaP FGC cells, 96 hours, WST-8 absorbance at 450 nm) is 4.06 µM.
Take `COC1(CN2CCC3(CCc4ccc5c(c4O3)CN(C3CCC(=O)NC3=O)C5=O)CC2)CCN(c2ccc(C(=O)N[C@H]3CC[C@H](Oc4ccc(C#N)c(Cl)c4)CC3)nn2)CC1` (some centres unmarked) [Compound 133]: the IC50 in assay [1] (setting [6]) turned out to be 23.7 µM.
`N#Cc1ccc(O[C@H]2CC[C@H](NC(=O)c3ccc(N4CCC(CN5CCC6(CC5)COc5cc7c(cc5O6)CN(C5CCC(=O)NC5=O)C7=O)CC4)nn3)CC2)cc1Cl` (some centres unmarked) [Compound 76]: the inhibition at 0.01 µM in assay [2] (setting [7]) stood at 74%; in assay [3], 84%. For the same compound, the inhibition at 0.1 µM came out at 74% in assay [2] (setting [8]) and 76% in assay [3].
On to `CC1(C)C(=O)N(c2ccc(C#N)c(C(F)(F)F)c2)C(=S)N1c1ccc(C(=O)N2CCC(CN3CCC4(CC3)COc3cc5c(cc3O4)CN(C3CCC(=O)NC3=O)C5=O)CC2)c(F)c1` (centres unmarked) [Compound 111], for which the IC50 in assay [1] (setting [5]) was found to be 5.72 µM.
With `COc1cc(O[C@H]2CC[C@H](NC(=O)c3ccc(N4CCC(C)(CN5CCC6(CC5)COc5c6ccc6c5C(=O)N(C5CCC(=O)NC5=O)C6=O)CC4)nn3)CC2)ccc1C#N` (some centres unmarked) [Compound 180], the figures for the inhibition at 0.01 µM in assay [2] (setting [7]) and in assay [3] were 12% and 29%, respectively. Also, the inhibition at 0.1 µM in assay [2] (setting [8]) is 53%; in assay [3], 73%.
For the compound `CC1(C)C(=O)N(c2ccc(C#N)c(C(F)(F)F)c2)C(=S)N1c1ccc(C(=O)N2CCC(CN3CC4(CCc5cc6c(cc5O4)C(=O)N(C4CCC(=O)NC4=O)C6=O)C3)CC2)c(F)c1` (centres unmarked) [Compound 119], the IC50 in assay [1] (setting [5]) is 4.11 µM.
Consider `N#Cc1ccc(O[C@H]2CC[C@H](NC(=O)c3ccc(N4CC5(CCC(N6CCC7(CC6)COc6c7ccc7c6CN(C6CCC(=O)NC6=O)C7=O)CC5)C4)nn3)CC2)cc1Cl` (some centres unmarked) [Compound 168], for which the inhibition at 0.01 µM came out at 70% in assay [2] (setting [7]) and 76% in assay [3]. Also, the inhibition at 0.1 µM in assay [2] (setting [8]) amounted to 26%; in assay [3] it was 77%.
As for `N#Cc1ccc(O[C@H]2CC[C@H](NC(=O)c3ccc(N4CC(N5CCC6(CC5)COc5c6ccc6c5CN(C5CCC(=O)NC5=O)C6=O)C4)nn3)CC2)cc1Cl` (some centres unmarked) [Compound 183], in assay [2] (LNCaP, 8 h), the inhibition at 0.01 µM was 40% and the inhibition at 0.1 µM came to 51%. In assay [3], the inhibition at 0.01 µM is 75% and the inhibition at 0.1 µM was determined as 84%.
The matching figures for `N#Cc1ccc(O[C@H]2CC[C@H](NC(=O)c3ccc(N4CC(N5CCC6(CC5)Cc5cc7c(cc5O6)C(=O)N(C5CCC(=O)NC5=O)C7=O)C4)nn3)CC2)cc1Cl` (some centres unmarked) [Compound 79]: 23%, 28%, 36% and 42%.
For the compound `N#Cc1ccc(O[C@H]2CC[C@H](NC(=O)c3cnc(N4CCC(F)(CN5CCC6(CC5)COc5c6ccc6c5CN(C5CCC(=O)NC5=O)C6=O)CC4)cn3)CC2)cc1Cl` (some centres unmarked) [Compound 157], the results for the inhibition at 0.01 µM in assay [2] (setting [7]) and in assay [3] were 51% and 46%, respectively. The inhibition at 0.1 µM was found to be 52% in assay [2] (setting [8]) and 84% in assay [3].
As to `N#Cc1ccc(O[C@H]2CC[C@H](NC(=O)c3ccc(N4CC(N5CCC6(CCc7cc8c(cc7O6)CN(C6CCC(=O)NC6=O)C8=O)CC5)C4)nn3)CC2)cc1Cl` (some centres unmarked) [Compound 42], in assay [2] (LNCaP, 8 h), the inhibition at 0.01 µM was found to be 29% and the inhibition at 0.1 µM amounted to 49%. Further, in assay [3], the inhibition at 0.01 µM turned out to be 45% and the inhibition at 0.1 µM stood at 33%.
